One block for each compound: values may come before it.
Tested on: 931267-113-T-J1-PDC multicell spheroid viability
Assay: Anticancer human tumor 931267-113-T-J1-PDC patient-derived colon adenocarcinoma cell line growth inhibition [PI3K]
Conditions: for IC50: curve of first compound; for viability, T/C: stronger effect = lower value
Summary of the method: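 Tumor cells grown as multi-cell spheroids with HUVEC endothelial cells and MSC fibroblast-like stroma were treated with targeted agents combined with inavolisib, alpelisib, duvelisib or copanlisib. Doses fell in half-log steps from near clinical Cmax, else from 10 microM. Viability was measured.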
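Further: viability read 7 days after compound addition.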

IC50 (second compound 0.0316 µM): > 10 µM
IC50 (second compound 0.1 µM): > 10 µM
IC50 (second compound 0.316 µM): > 10 µM
IC50 (second compound 1 µM): > 10 µM
IC50 (second compound 3.16 µM): > 10 µM
IC50 (second compound 10 µM): 3.66 µM
SMILES: CNC(=O)c1ccc(N2C(=S)N(c3ccc(C#N)c(C(F)(F)F)c3)C(=O)C2(C)C)cc1F + Cc1nc(NC(=O)N2CCCC2C(N)=O)sc1-c1ccnc(C(C)(C)C(F)(F)F)c1
viability, T/C (second compound 0.0316 µM, first compound 0.0316 µM): 112%
viability, T/C (second compound 0.0316 µM, first compound 0.1 µM): 85%
viability, T/C (second compound 0.0316 µM, first compound 0.316 µM): 95.4%
viability, T/C (second compound 0.0316 µM, first compound 1 µM): 105%
viability, T/C (second compound 0.0316 µM, first compound 3.16 µM): 101%
viability, T/C (second compound 0.0316 µM, first compound 10 µM): 93.5%
viability, T/C (second compound 0.1 µM, first compound 0.0316 µM): 94%
viability, T/C (second compound 0.1 µM, first compound 0.1 µM): 105%
viability, T/C (second compound 0.1 µM, first compound 0.316 µM): 98.7%
viability, T/C (second compound 0.1 µM, first compound 1 µM): 105%
viability, T/C (second compound 0.1 µM, first compound 3.16 µM): 99.5%
viability, T/C (second compound 0.1 µM, first compound 10 µM): 98.5%
viability, T/C (second compound 0.316 µM, first compound 0.0316 µM): 92.9%
viability, T/C (second compound 0.316 µM, first compound 0.1 µM): 75.9%
viability, T/C (second compound 0.316 µM, first compound 0.316 µM): 87.9%
viability, T/C (second compound 0.316 µM, first compound 1 µM): 80.5%
viability, T/C (second compound 0.316 µM, first compound 3.16 µM): 89.3%
viability, T/C (second compound 0.316 µM, first compound 10 µM): 76.5%
viability, T/C (second compound 1 µM, first compound 0.0316 µM): 89.6%
viability, T/C (second compound 1 µM, first compound 0.1 µM): 66.4%
viability, T/C (second compound 1 µM, first compound 0.316 µM): 73.9%
viability, T/C (second compound 1 µM, first compound 1 µM): 85.1%
viability, T/C (second compound 1 µM, first compound 3.16 µM): 83.5%
viability, T/C (second compound 1 µM, first compound 10 µM): 76.2%
viability, T/C (second compound 3.16 µM, first compound 0.0316 µM): 71.2%
viability, T/C (second compound 3.16 µM, first compound 0.1 µM): 64.5%
viability, T/C (second compound 3.16 µM, first compound 0.316 µM): 73.8%
viability, T/C (second compound 3.16 µM, first compound 1 µM): 62.5%
viability, T/C (second compound 3.16 µM, first compound 3.16 µM): 77.2%
viability, T/C (second compound 3.16 µM, first compound 10 µM): 67.5%
viability, T/C (second compound 10 µM, first compound 0.0316 µM): 59.7%
viability, T/C (second compound 10 µM, first compound 0.1 µM): 54.2%
viability, T/C (second compound 10 µM, first compound 0.316 µM): 56.2%
viability, T/C (second compound 10 µM, first compound 1 µM): 53.3%
viability, T/C (second compound 10 µM, first compound 3.16 µM): 56.4%
viability, T/C (second compound 10 µM, first compound 10 µM): 42.2%

IC50 (second compound 0.0316 µM): 0.0758 µM
IC50 (second compound 0.1 µM): 0.0806 µM
IC50 (second compound 0.316 µM): 0.0616 µM
IC50 (second compound 1 µM): 0.0421 µM
IC50 (second compound 3.16 µM): 0.0196 µM
IC50 (second compound 10 µM): < 0.00949 µM
SMILES: Cn1cnc2c(F)c(Nc3ccc(Br)cc3Cl)c(C(=O)NOCCO)cc21 + Cc1nc(NC(=O)N2CCCC2C(N)=O)sc1-c1ccnc(C(C)(C)C(F)(F)F)c1
viability, T/C (second compound 0.0316 µM, first compound 0.00949 µM): 86%
viability, T/C (second compound 0.0316 µM, first compound 0.03 µM): 63.5%
viability, T/C (second compound 0.0316 µM, first compound 0.0949 µM): 47.3%
viability, T/C (second compound 0.0316 µM, first compound 0.3 µM): 32.2%
viability, T/C (second compound 0.0316 µM, first compound 0.949 µM): 18.7%
viability, T/C (second compound 0.0316 µM, first compound 3 µM): 12%
viability, T/C (second compound 0.1 µM, first compound 0.00949 µM): 85.7%
viability, T/C (second compound 0.1 µM, first compound 0.03 µM): 70.2%
viability, T/C (second compound 0.1 µM, first compound 0.0949 µM): 44.1%
viability, T/C (second compound 0.1 µM, first compound 0.3 µM): 30.1%
viability, T/C (second compound 0.1 µM, first compound 0.949 µM): 21%
viability, T/C (second compound 0.1 µM, first compound 3 µM): 10.4%
viability, T/C (second compound 0.316 µM, first compound 0.00949 µM): 74.5%
viability, T/C (second compound 0.316 µM, first compound 0.03 µM): 61.5%
viability, T/C (second compound 0.316 µM, first compound 0.0949 µM): 43.3%
viability, T/C (second compound 0.316 µM, first compound 0.3 µM): 25.9%
viability, T/C (second compound 0.316 µM, first compound 0.949 µM): 16.6%
viability, T/C (second compound 0.316 µM, first compound 3 µM): 8.73%
viability, T/C (second compound 1 µM, first compound 0.00949 µM): 66.4%
viability, T/C (second compound 1 µM, first compound 0.03 µM): 60.5%
viability, T/C (second compound 1 µM, first compound 0.0949 µM): 29%
viability, T/C (second compound 1 µM, first compound 0.3 µM): 20.8%
viability, T/C (second compound 1 µM, first compound 0.949 µM): 13.8%
viability, T/C (second compound 1 µM, first compound 3 µM): 5.73%
viability, T/C (second compound 3.16 µM, first compound 0.00949 µM): 64%
viability, T/C (second compound 3.16 µM, first compound 0.03 µM): 41.6%
viability, T/C (second compound 3.16 µM, first compound 0.0949 µM): 26.7%
viability, T/C (second compound 3.16 µM, first compound 0.3 µM): 15.1%
viability, T/C (second compound 3.16 µM, first compound 0.949 µM): 9.74%
viability, T/C (second compound 3.16 µM, first compound 3 µM): 5.86%
viability, T/C (second compound 10 µM, first compound 0.00949 µM): 49.8%
viability, T/C (second compound 10 µM, first compound 0.03 µM): 33.1%
viability, T/C (second compound 10 µM, first compound 0.0949 µM): 25.5%
viability, T/C (second compound 10 µM, first compound 0.3 µM): 12.2%
viability, T/C (second compound 10 µM, first compound 0.949 µM): 9.35%
viability, T/C (second compound 10 µM, first compound 3 µM): 3.2%

From PubChem BioAssay AID1963970 (Molecular Pharmacology Branch, DTP, NCI, 2024)
